A word on the CC50: it is the concentration that lowers cell viability or growth by half. A higher CC50 goes with lower toxicity to the cells. As usually defined, the EC50 is the concentration giving half of the maximal effect.

From ChEMBL document CHEMBL1667812, “Compounds from Kadsura angustifolia with anti-HIV activity” (Bioorg Med Chem Lett, 2011) come the findings set out here.

Molecules are shown by their SMILES. In brackets after ≈: the same amount, converted by molar mass. Some results are limits rather than exact numbers.

Series [1] is described as follows: Cytotoxicity against human […] cells. The series is classed as cell-based.
Series [2] relates to Human immunodeficiency virus 1. Nature of the series: Antiviral activity against HIV1-3B infected in human […] cells assessed as inhibition of virus-induced cytopathic effect. As to conditions: Human immunodeficiency virus 1, 3B. The series is classed as functional, organism-based. On the technique in general: Cytopathic effects are the visible damage that an infection or toxin causes in cultured cells.

The nature of series [3]: Therapeutic index, ratio of CC50 for human […] cells to EC50 for HIV1-3B. As to conditions: read-out: Ratio CC50/EC50. The series is classed as cell-based.

Compound `C=C(C)[C@@H]1CC[C@@H]2[C@]3(CC[C@]4(C)[C@@H]([C@H](C)CC/C=C(/C)C(=O)O)CC[C@@]24C)C[C@]13CCC(=O)O` [NIGRANOIC ACID] came in with a half-maximal cytotoxic concentration (CC50) in series [1] of 89 µg/mL (≈ 189 µM). In addition, in series [2], the half-maximal effective concentration (EC50) stood at 10.5 µg/mL (≈ 22.3 µM). The selectivity ratio in series [3] came out at 8.48.
As to `COc1c2c(cc3c1-c1c(cc4c(c1OC)OCO4)[C@H](OC(=O)c1ccccc1)[C@@](C)(O)[C@@H](C)C3)OCO2` [SCHISANTHERIN D], in series [1], the half-maximal cytotoxic concentration (CC50) was over 200 µg/mL. The EC50 in series [2] came to 20.5 µg/mL (≈ 39.4 µM). For the same compound, in series [3], the selectivity ratio was over 9.76.
For `C=C(CC/C=C(/C)C(=O)O)C1=CC[C@@]2(C)[C@@H]3[C@H]4C[C@H](C(=C)C)[C@@]5(CCC(=O)O4)C[C@@]35CC[C@]12C` [ANGUSTIFIC ACID A] the same measures were over 200 µg/mL, 6.11 µg/mL (≈ 13.1 µM) and over 32.8.
For `COc1cc2c(c(OC)c1OC)-c1c(cc(OC)c(OC)c1OC)C[C@](C)(O)[C@@H](C)C2` [SCHIZANDRIN] the same measures were over 200 µg/mL, 15.8 µg/mL (≈ 36.5 µM) and over 12.7.
For `CC1(C)OC(=O)C=C[C@]23C[C@]24C[C@H](O)[C@]2(C)[C@@H]([C@@](C)(O)[C@H]5CC=C(CO)C(=O)O5)CC[C@@]2(C)[C@@H]4C[C@H](O)[C@@H]13` [ANGUSTIFODILACTONE A] the same measures were 178 µg/mL (≈ 336 µM), 13.3 µg/mL (≈ 25.1 µM) and 13.4.
As to `C=C(C)[C@@H]1CC[C@@H]2[C@]3(CC[C@]4(C)C(=O)CC[C@@]24C)C[C@]13CCC(=O)O` [MICRANOIC ACID B], it took 176 µg/mL (≈ 511 µM) to reach half-maximal cytotoxicity in series [1] (CC50). Besides, the concentration for a half-maximal effect (EC50) in series [2] worked out at 15.7 µg/mL (≈ 45.6 µM). In series [3], the selectivity ratio stood at 11.2.
For `Cc1cn([C@H]2C[C@H](N=[N+]=[N-])[C@@H](CO)O2)c(=O)[nH]c1=O` [ZIDOVUDINE] the same measures were over 200 µg/mL, 0.0033 µg/mL (≈ 0.0123 µM) and over 60600.
For `C=C(C)[C@@H]1C[C@H](O)[C@@H]2[C@]3(CC[C@]4(C)C([C@@](C)(O)CC/C=C(/C)C(=O)O)=C[C@H](O)[C@@]24C)C[C@]13CCC(=O)O` [ANGUSTIFIC ACID B] the same measures were 156 µg/mL (≈ 302 µM), 11.2 µg/mL (≈ 21.7 µM) and 13.9.
For `C/C=C(/C)C(=O)O[C@H]1c2cc(OC)c(OC)c(OC)c2-c2c(cc3c(c2OC)OCO3)C[C@H](C)[C@]1(C)O` [SCHISANTHERIN B] the same measures were over 200 µg/mL, 22.1 µg/mL (≈ 42.9 µM) and over 9.05.
For the compound `CC1=CC[C@H]([C@](C)(O)[C@H]2CC[C@@]3(C)[C@@H]4C[C@H](O)[C@H]5C(C)(C)OC(=O)C=C[C@@]56C[C@@]46C[C@H](O)[C@]23C)OC1=O` [ANGUSTIFODILACTONE B], the CC50 in series [1] was determined as 182 µg/mL (≈ 354 µM). For the same compound, the EC50 in series [2] stood at 13.6 µg/mL (≈ 26.4 µM). The selectivity ratio in series [3] was determined as 13.4.
On the same counts, the results for `C/C=C(/C)C(=O)O[C@H]1c2cc3c(c(OC)c2-c2c(cc4c(c2OC)OCO4)C[C@H](C)[C@]1(C)O)OCO3` [INTERIOTHERIN B] are over 200 µg/mL, 19 µg/mL (≈ 38.1 µM) and over 10.5.
